compound: CC1=CC(=CC=C1)NC2=NC(=CS2)C3=CC=NC=C3 + N=C(N)NC(=N)NCCc1ccccc1 [Phenformin] (partner 250 µM); test: relative viability (nuclei count vs DMSO), 5 days (fraction); higher = more cells survive; conditions: first compound 0.08 µM
Procedure, shortened: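 Relative viability is defined as nuclei in treated wells over nuclei in vehicle wells. Duplicate plates were run and medians reported. Lung cancer cell lines in 1536-well plates were dosed by pin tool one day after seeding, with one drug or with a fixed anchor-drug dose plus five library-drug doses (not always all listed) in √10 steps, and nuclei were counted after 5 days.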

Cell Line	relative viability
NCI-H1734	0.401
NCI-H2009	0.449
LU99A	0.762
PC-14	0.47
LCLC-103H	0.284
NCI-H596	0.727
NCI-H2228	0.265
EMC-BAC-2	0.415
NCI-H2087	0.373
HCC-366	0.635
NCI-H647	0.413
NCI-H2126	0.466
NCI-H2342	0.483
NCI-H1793	0.255
H3255	0.372
COR-L23	0.414
COR-L 105	0.429
LOU-NH91	0.468
ChaGo-K-1	0.445
NCI-H358	0.371
NCI-H3122	0.359
HOP-62	0.683
HCC-44	0.128
A549	0.179
SW 900	0.555
LXF-289	0.494
BEN	0.27
HARA	0.338
NCI-H1563	0.725

same assay, conditions: first compound 0.253 µM

Cell Line	relative viability
NCI-H522	0.687
NCI-H1623	0.585
NCI-H838	0.521
NCI-H1651	0.318
NCI-H1734	0.353
NCI-H2009	0.482
LU99A	0.765
PC-14	0.457
LCLC-103H	0.308
NCI-H596	0.789
NCI-H2228	0.35
EMC-BAC-2	0.505
NCI-H2087	0.421
HCC-366	0.601
NCI-H647	0.489
LK-2	0.365
NCI-H2126	0.439

Cell Line	relative viability
NCI-H2342	0.582
NCI-H1793	0.293
H3255	0.374
COR-L23	0.378
COR-L 105	0.495
LOU-NH91	0.364
ChaGo-K-1	0.439
NCI-H358	0.35
NCI-H3122	0.348
HOP-62	0.609
HCC-44	0.198
A549	0.179
SW 900	0.446
LXF-289	0.522
BEN	0.254
HARA	0.476
NCI-H1563	0.634

same assay, conditions: first compound 0.8 µM

Cell Line	relative viability
NCI-H522	0.654
NCI-H1623	0.564
NCI-H838	0.537
NCI-H1651	0.34
NCI-H1734	0.399
NCI-H2009	0.46
LU99A	0.863
PC-14	0.601
LCLC-103H	0.327
NCI-H596	0.733
NCI-H2228	0.266
EMC-BAC-2	0.58
NCI-H2087	0.449
HCC-366	0.576
NCI-H647	0.5
LK-2	0.584
NCI-H2126	0.523

Cell Line	relative viability
NCI-H2342	0.603
NCI-H1793	0.387
H3255	0.365
COR-L23	0.443
COR-L 105	0.534
LOU-NH91	0.63
ChaGo-K-1	0.5
NCI-H358	0.353
NCI-H3122	0.364
HOP-62	0.804
HCC-44	0.3
A549	0.15
SW 900	0.673
LXF-289	0.514
BEN	0.285
HARA	0.413
NCI-H1563	0.691

same assay, conditions: first compound 2.53 µM

Cell Line	relative viability
NCI-H522	0.613
NCI-H1623	0.513
NCI-H838	0.508
NCI-H1651	0.33
NCI-H1734	0.456
NCI-H2009	0.51
LU99A	0.884
PC-14	0.521
LCLC-103H	0.309
NCI-H596	0.68
NCI-H2228	0.313
EMC-BAC-2	0.541
NCI-H2087	0.575
HCC-366	0.607
NCI-H647	0.534
NCI-H2126	0.498
NCI-H2342	0.518

Cell Line	relative viability
NCI-H1793	0.408
H3255	0.4
COR-L23	0.377
COR-L 105	0.388
LOU-NH91	0.591
ChaGo-K-1	0.409
NCI-H358	0.402
NCI-H3122	0.373
HOP-62	0.722
HCC-44	0.171
A549	0.169
SW 900	0.461
LXF-289	0.487
BEN	0.266
HARA	0.427
NCI-H1563	0.733

same assay, conditions: first compound 8 µM

Cell Line	relative viability
NCI-H522	0.655
NCI-H1623	0.565
NCI-H838	0.51
NCI-H1651	0.316
NCI-H1734	0.38
NCI-H2009	0.347
LU99A	0.821
PC-14	0.502
LCLC-103H	0.27
NCI-H596	0.669
NCI-H2228	0.332
EMC-BAC-2	0.491
NCI-H2087	0.446
HCC-366	0.505
NCI-H647	0.515
LK-2	0.44
NCI-H2126	0.523

Cell Line	relative viability
NCI-H2342	0.568
NCI-H1793	0.316
H3255	0.414
COR-L23	0.406
COR-L 105	0.496
LOU-NH91	0.744
ChaGo-K-1	0.464
NCI-H358	0.387
NCI-H3122	0.343
HOP-62	0.65
HCC-44	0.294
A549	0.235
SW 900	0.532
LXF-289	0.487
BEN	0.25
HARA	0.347
NCI-H1563	0.657
